In patent publication US20250011347A1, “NOVEL PLASMALOGEN DERIVATIVE” (Institute of Rheological Function of Food Co., Ltd., priority 2021, published 2025):
“Also recorded” adds a separate entry of the source.

Experiments:
[1] = tested on: microglia (Iba1-positive cells) and astrocytes (GFAP-positive cells) in hippocampal tissue; test: LPS-induced amoeboid shaped microglia and astrocytes increase in mouse hippocampal tissue (immunohistochemistry); type: in vivo; conditions: c57BL6J mice hippocampal tissue, 10 mg/50 kg/day in drinking water 4 weeks, then LPS 10 days; for LPS-induced amoeboid shaped astrocytes (GFAP-positive cells) increase / LPS-induced amoeboid shaped microglia (Iba1-positive cells) increase: FIG. 17, 18; for LPS-induced astrocytes (GFAP-positive cells) increase (number): FIG. 18 lower graph
Description: Specifically, 8-week-old male c57BL6J mice were allowed to drink each of the compounds of the present invention (KIT-008 and KIT-020) at a dose of 10 mg/50 kg/day for 4 weeks, and were then subjected to LPS treatment (200 mg/kg/day) for 10 days while allowing them to drink the compound in the same manner. The mouse brain tissue was subjected to an immunohistochemistry (IHC) study using Iba1 (a microglia marker, Fujifilm 019-19741) and GFAP (an astrocyte marker, Sigma C9205). DAPI was used to stain a cell nucleus. In FIG. 17, the scale bar is 100 μm. The data in FIG. 18 represent the percentages of amoeboid shaped microglia and amoeboid shaped astrocytes (upper graphs) and the number of astrocytes (GFAP-positive cells) (a lower graph) in each group (3 mice, n=3). In the LPS group, the amoeboid shaped microglia (Iba1-positive cells) and the amoeboid shaped astrocytes (GFAP-positive cells) increased compared to the control group. In addition, the astrocytes (GFAP-positive cells) increased. However, in the KIT-008 group and the KIT-020 group, the LPS-induced amoeboid shaped microglia (Iba1-positive cells) increase and amoeboid shaped astrocytes (GFAP-positive cells) increase and astrocytes (GFAP-positive cells) increase were suppressed.

[2] = tested on: lysosomes in mouse neurons Neuro2a (N2a); test: Impaired lysosomal acidification in Neuro2a neurons induced by culture supernatant of LPS-treated BV2; type: cell-based; conditions: N2a cells, compound 24 hours, then 24 hours in supernatant of LPS-treated BV2 with compound; LysoTracker Red; FIG. 10
Description: Lysosomes in mouse neurons Neuro2a (N2a) cultured in a normal DMEM medium were labeled with LysoPrime Green (Dojindo). LysoPrime Green is a fluorescent dye that is highly specific for lysosomes which are acidic organelles and that is resistant to pH changes.
Then, N2a is cultured in the culture supernatant of mouse glial cells BV2 treated with the endotoxin lipopolysaccharide (LPS) (1 μg/ml, 18 h) or the culture supernatant of untreated BV2, and labeled with LysoTracker™ Red DND-99 (Thermo Fisher Scientific) which targets acidic organelles.
That is, it was shown that acidification of the lysosomes in the neurons were impaired by glial cell-derived factors in the medium resulting from inflammation.
Each of the compounds of the present invention, KIT-008, KIT-019 and KIT-020 was added to the medium of N2a cells and cultured for 24 hours, and then cultured for another 24 hours in the culture supernatant of BV2 administered with LPS in the presence of each compound.

[3] = tested on: amyloid beta (Aβ) in N2a cells; test: Amyloid beta (Aβ) accumulation in lysosomes of CFPAPPsw-expressing N2a cells; type: cell-based, mouse; conditions: N2a cells expressing CFPAPPsw in LPS-treated BV2-derived medium, pretreatment with compound; antibody 6E10; FIG. 11
Source text: A plasmid having cDNA encoding CFPAPPsw (CFPAPPsw that fuses a fluorescent protein CFP to the N-terminus of an amyloid precursor protein (APPsw) having a Swedish-type amino acid substitution that is easily cleaved by BACE) was expressed in N2a cells, and localization of amyloid beta (Aβ) in the N2a cells in an untreated mouse glial cell BV2 culture supernatant (−LPS), in the N2a cells in LPS-treated BV2 culture supernatant (LPS-treated BV2-derived medium), and in the N2a cells administered with KIT-008 was verified using an antibody 6E10 (BioLegend) that recognizes the Aβ portion.

[4] = tested on: c57BL6J mice; test: Water maze test of mice with LPS-induced memory impairment; type: in vivo, mouse; conditions: 10 mg/50 kg/day in drinking water 4 weeks, then LPS 7 days, Trial 6, P<0.05, FIG. 12
Description: Specifically, 8-week-old male c57BL6J mice (5 mice in each group, n=5) were allowed to drink each of the compounds of the present invention (KIT-008 and KIT-020) at a dose of 10 mg/50 kg/day for 4 weeks, and were then subjected to LPS treatment (200 mg/kg/day) for 7 days while allowing them to drink the compound in the same manner. Thereafter, they were subjected to a water maze test for 2 days (3 trials per day).
Escape Latency indicates the time required to arrive at an escape platform (arrival time). Comparisons between groups were performed by ANOVA test and Bonferroni's post hoc test. […] Therefore, the compounds of the present invention are effective in improving brain function (cognitive function).

[5] = tested on: inducible nitric oxide synthase (iNOS); test: LPS-induced iNOS expression in mouse hippocampal tissue (immunohistochemistry); type: in vivo; conditions: c57BL6J mice hippocampal tissue, 10 mg/50 kg/day in drinking water 4 weeks, then LPS 10 days; FIG. 15, 16
Description: Specifically, 8-week-old male c57BL6J mice were allowed to drink each of the compounds of the present invention (KIT-008 and KIT-020) at a dose of 10 mg/50 kg/day for 4 weeks, and were then subjected to LPS treatment (200 mg/kg/day) for 10 days while allowing them to drink the compound in the same manner. The mouse brain tissue was subjected to an immunohistochemistry (IHC) study using an anti-NeuN antibody (a neuron marker, Millipore MAB377) and an anti-iNOS antibody (an inflammatory marker, Invitrogen PA1-036). DAPI was used to stain a cell nucleus.
In FIG. 15, the scale bar is 50 μm and the arrows indicate iNOS-positive neurons. The data in FIG. 16 represents the average value for each group (3 mice, n=3). In the LPS group, the number of iNOS-positive neurons increased compared to that in the control group, but in the KIT-008 group and the KIT-020 group, the increase in iNOS-positive neurons caused by LPS was suppressed.

[6] = tested on: amyloid beta (Aβ) deposition in hippocampal tissue; test: LPS-induced amyloid beta (Aβ) deposition in mouse hippocampal tissue (immunohistochemistry); type: in vivo; conditions: c57BL6J mice hippocampal tissue, 10 mg/50 kg/day in drinking water 4 weeks, then LPS 10 days; FIG. 13, 14
Description: Specifically, 8-week-old male c57BL6J mice were allowed to drink each of the compounds of the present invention (KIT-008 and KIT-020) at a dose of 10 mg/50 kg/day for 4 weeks, and were then subjected to LPS treatment (200 mg/kg/day) for 10 days while allowing them to drink the compound in the same manner. The mouse hippocampal tissue was subjected to an immunohistochemistry test using an anti-amyloid beta antibody (a cocktail of two antibodies, 6E10 (BioLegend) and 82E1 (Immuno-Biological Laboratories Co, Ltd)). DAPI was used to stain a cell nucleus. In FIG. 13, the scale bar is 100 μm and the arrows indicate amyloid beta that deposited. The data in FIG. 14 represent the average number of amyloid beta deposition in each group (3 mice, n=3). In the LPS group, amyloid beta deposition was observed compared to the control group, but in the KIT-008 group and the KIT-020 group, amyloid beta deposition caused by LPS was suppressed.

[7] = tested on: p65 (NFkB); test: LPS-induced p65 nuclear accumulation in BV2 microglial cells (Western blotting); type: cell-based, mouse; conditions: compound 5 μg/ml 12 hours, then LPS 1 μg/ml 2 hours, FIG. 2
Description: (§1) Mouse microglial cells (BV2) were cultured using a DMEM medium containing 2% FBS (fetal bovine serum) for 12 hours under conditions with or without the addition of the compound of the present invention, KIT-008 or KIT-020 (5 μg/ml). Thereafter, it was treated with LPS (1 μg/ml) for 2 hours, proteins in the cell nucleus were extracted, and p65 (NFkB) protein expression was detected by Western blotting using NF-κB p65 (Cell Signaling Technology, the clone name: D14E12) as a primary antibody and Anti-Rabbit IgG HRP-linked antibody (Cell Signaling Technology) as a secondary antibody.

[8] = tested on: inflammatory cytokine IL-1β; test: LPS-induced IL-1β expression in BV2 microglial cells (semi-quantitative PCR); type: cell-based, mouse; conditions: compound 5 μg/ml 12 hours, then LPS 1 μg/ml 2 hours, FIG. 1
Description: Mouse microglial cells (BV2) were cultured using a DMEM medium containing 2% FBS (fetal bovine serum) for 12 hours under conditions with or without the addition of the compound of the present invention, KIT-008 (5 μg/ml). Thereafter, the cells were treated with LPS (1 μg/ml) for 2 hours, and intracellular RNAs were extracted with an RNA extraction kit (TRI Reagent, Molecular Research Center Inc.), and the expression of an inflammatory cytokine IL-1β and the RNA expression of the Gapdh gene as a control were detected by semi-quantitative PCR (TaKaRa PrimeScript 1st strand cDNA synthesis Kit, TAKARA BIOTECHNOLOGY Co., LTD.).

[9] = tested on: MeCP2-deficient mice; test: Survival (lifetime) of MeCP2-deficient mice; type: in vivo, mouse; conditions: male MeCP2-deficient mice from 4 weeks old, 20 ng/g body weight in drinking water twice a week
Description: Four-week-old male MeCP2-deficient mice were used in the experiment. The MeCP2-deficient mice were divided into two groups: a KIT-008 administration group (KO-KIT-008, n=13) and a control group (KO-All, n=28). The body weight of each of the mice in the administration group was measured in advance. The compound KIT-008 was suspended in water by sonication so that KIT-008 was ingested at 20 ng/g body weight, and it was continuously administered in drinking water to each mouse twice a week to verify its survival. The control group was given only water in the same manner.

[10] = tested on: p65 (NFkB); test: LPS-induced p65 nuclear accumulation in MG6 microglial cells (Western blotting); type: cell-based, mouse; conditions: compound 5 μg/ml 24 hours, then LPS 1 μg/ml 8 hours, FIG. 3
Description: as §1, with “cells (MG6)” for “cells (BV2)”, “for 24” for “for 12”, “invention, KIT-019” for “invention, KIT-008”, “for 8” for “for 2”

[11] = tested on: IL-1β protein; test: LPS-induced secreted IL-1β protein in MG6 microglial cells (ELISA); type: cell-based, mouse; conditions: compound 5 μg/ml 24 hours, then LPS 1 μg/ml 8 hours, ELISA of culture medium, FIG. 4
Description: Five-thousand mouse microglial cells (MG6) were cultured in a 96-well dish containing 100 μl of a DMEM medium containing 2% FBS (fetal bovine serum). Then, 5 μg/ml of each of the compounds of the present invention, KIT-019 and KIT-020 was added and cultured for 24 hours. Thereafter, it was treated with LPS (1 μg/ml) for 8 hours. The culture medium was collected, and the secreted IL-1β protein was measured by ELISA using DuoSet Mouse IL-1β (R&D Systems).

Compound	LPS-induced amoeboid shaped astrocytes (GFAP-positive cells) increase [1]	LPS-induced amoeboid shaped microglia (Iba1-positive cells) increase [1]	LPS-induced astrocytes (GFAP-positive cells) increase (number) [1]	impaired acidification of lysosomes in neurons caused by glial cell-derived factors [2]	accumulation of Aβ in lysosomes [3]	memory retention (Escape Latency) compared to the LPS group [4]	increase in iNOS-positive neurons caused by LPS [5]	amyloid beta deposition caused by LPS [6]	LPS-induced p65 nuclear accumulation [7]	LPS-induced inflammatory cytokine IL-1β expression [8]	survival rate compared with MeCP2-deficient mice not administered ([9]; FIG. 5)	number of days until the survival rate reached 50% ([9]; control group 64.5 days) [days]	LPS-induced p65 nuclear accumulation [10]	LPS-induced inflammatory cytokine IL-1β protein expression [11]
CC/C=C\C/C=C\C/C=C\C/C=C\C/C=C\C/C=C\CCC(=O)O[C@H](COC/C=C/CCCCCCCCCCCCCCC)COP(=O)(O)OCCN [KIT-008, 2-((((R)-2-(((4Z,7Z,10Z,13Z,16Z,19Z)-docosa-4,7,10,13,16,19-hexenoyl)oxy)-3-(((E)-octadec-2-en-1-yl)oxy)propoxy)(hydroxy)phosphoryl)oxy)ethane-1-ammonium 2,2,2-trifluoroacetate]	suppressed	suppressed	suppressed	ameliorated; also recorded: highest effect	eliminated	improvement in memory retention	suppressed	suppressed	suppressed	reduced	higher	78	–	–
CCCCCCCC/C=C\CCCCCCCC(=O)O[C@H](COC/C=C/CCCCCCCCCCCCCCC)COP(=O)(O)OCCN [KIT-019, 2-((hydroxy((R)-3-3-(((E)-octadec-2-en-1-yl)oxy)-2-(oleoyloxy)propyl)phosphoryl)oxy)ethane-1-ammonium 2,2,2-trifluoroacetate]	–	–	–	ameliorated	–	–	–	–	–	–	–	–	significantly suppressed	significantly reduced
CCCCC/C=C\C/C=C\C/C=C\C/C=C\CCCC(=O)O[C@H](COC/C=C/CCCCCCCCCCCCCCC)COP(=O)(O)OCCN [KIT-020, 2-((hydroxy((R)-2-(((5Z,8Z,11Z,14Z)-icosa-5,8,11,14-tetraenoyl)oxy)-3-(((E)-octadec-2-en-1-yl)oxy)propoxy)phosphoryl)oxy)ethane-1-ammonium 2,2,2-trifluoroacetate]	suppressed	suppressed	suppressed	ameliorated	–	improvement in memory retention	suppressed	suppressed	significantly suppressed	–	–	–	significantly suppressed	significantly reduced
